Results on 6 compounds are retold here after patent publication US7329754B2, “2,5-diazabicyclo[2.2.1]heptane derivatives” (Neurosearch A/S, priority 2001, dated 2008).

One may read the IC50 as the concentration that inhibits the measured activity by half.

Structures can show the parent of a compound that is named as a salt.

Sequence of serotonin transporter (P31652 whole entry): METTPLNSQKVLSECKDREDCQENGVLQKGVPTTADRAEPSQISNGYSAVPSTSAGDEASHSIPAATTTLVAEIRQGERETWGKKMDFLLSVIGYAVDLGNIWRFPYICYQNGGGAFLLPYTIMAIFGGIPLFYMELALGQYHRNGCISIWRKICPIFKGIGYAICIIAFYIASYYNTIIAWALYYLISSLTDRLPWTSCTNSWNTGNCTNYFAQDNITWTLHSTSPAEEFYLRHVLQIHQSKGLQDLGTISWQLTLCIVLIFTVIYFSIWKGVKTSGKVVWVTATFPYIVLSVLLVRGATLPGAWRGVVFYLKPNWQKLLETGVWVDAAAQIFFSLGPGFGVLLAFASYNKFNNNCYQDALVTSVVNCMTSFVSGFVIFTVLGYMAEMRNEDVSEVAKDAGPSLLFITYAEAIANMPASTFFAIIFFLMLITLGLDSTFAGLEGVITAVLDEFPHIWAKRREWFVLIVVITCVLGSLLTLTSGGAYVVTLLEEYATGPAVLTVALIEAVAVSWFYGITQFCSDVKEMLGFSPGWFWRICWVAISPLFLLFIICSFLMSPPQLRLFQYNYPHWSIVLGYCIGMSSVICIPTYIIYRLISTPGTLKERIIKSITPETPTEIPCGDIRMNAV

The first assay addresses serotonin transporter (Rattus norvegicus, UniProt P31652). As to the kind of experiment: Serotonin transporter/uptake assay: synaptosomal uptake of 3H-5-hydroxytryptamine. It counts as biochemical.
Conditions: not given
As to the method: In this example the biological activity of the compounds of the invention are determined using a serotonin transporter/uptake assay. Serotonin transporters/uptake sites on nerve terminals presumably function to terminate neuronal signaling by removing serotonin from the synaptic cleft. The activity of the serotonin transporter integral protein can be measured in vitro by synaptosomal uptake of ^3H-5-hydroxytryptamine.
Preparations are performed at 0-4° C. Cerebral cortices from male Wistar rats (150-200 g) are homogenized for 5-10 seconds in 100 volumes of ice-cold 0.32 M sucrose containing 1 mM pargyline, and using a motor driven teflon pestle in a glass homogenizing vessel.
Monoamine oxidase activity becomes inhibited by pargyline.
The homogenate is centrifuged at 1000×g for 10 minutes. The resulting supernatant is subjected to centrifugation at 27,000×g for 50 minutes, and the supernatant is discarded. The pellet (P2) is re-suspended in oxygenated (equilibrated with an atmosphere of 96% O2: 4% CO2 for at least 30 minutes) Krebs-Ringer incubation buffer (1000 ml per g of original tissue) at pH 7.2, containing 122 mM NaCl, 0.16 mM EDTA, 4.8 mM KCl, 12.7 mM Na2HPO4, 3.0 mM NaH2PO4, 1.2 mM MgSO4, 1 mM CaCl2, 10 mM glucose and 1 mM ascorbic acid.
Aliquots of 4.0 ml tissue suspension are added to 100 μl of test solution and 100 μl of ^3H-5-HT (1 nM, final concentration), mixed and incubated for 30 minutes at 37° C. Non-specific uptake is determined using Citalopram (1 μM, final concentration; Available from H. Lundbeck, Denmark), a serotonin reuptake inhibitor.
After incubation the samples are poured directly onto Whatman GF/C glass fibre filters under suction. The filters are washed three times with 5 ml of ice-cold 0.9% (w/v) NaCl solution.
The amount of radioactivity on the filters is determined by conventional liquid scintillation counting. Specific uptake is calculated as the difference between total uptake and non-specific uptake.
25-75% inhibition of specific binding must be obtained, before calculation of an IC50.
The test value is presented as IC50 (the concentration (μM) of the test substance which inhibits the specific binding of ^3H-5-HT by 50%), calculated according to the following equation: […]
where Co is specific binding in control assays and Cx is the specific binding in the test assay (the calculations assume normal mass-action kinetics).
`c1ccc2nc(N3C[C@@H]4C[C@H]3CN4)ccc2c1` [Compound 1, 2-(2-Quinolinyl)-(1S,4S)-2,5-diazabicyclo-[2.2.1]-heptane fumaric acid salt] had an IC50 of 88 nM.
Same read-out and setting: then `O=[N+]([O-])c1ccc2nc(N3C[C@@H]4C[C@H]3CN4)ccc2c1` [Compound 3, 2-(6-Nitro-2-quinolinyl)-(1S,4S)-2,5-diazabicyclo-[2.2.1]-heptane fumaric acid salt], with 0.24 nM; and `CN1C[C@@H]2C[C@H]1CN2c1ccc2cc([N+](=O)[O-])ccc2n1` [Compound 4, 2-(6-Nitro-2-quinolinyl)-5-methyl-(1S,4S)-2,5-diazabicyclo-[2.2.1]-heptane fumaric acid salt], with 3.4 nM.

Still in this assay, the particulars now being: synaptosomes from cerebral cortices of male Wistar rats; 3H-5-HT 1 nM; 30 minutes at 37° C.; read-out: Serotonin uptake IC50.
Regarding `CN1C[C@@H]2C[C@H]1CN2c1ccc2ccccc2n1` [Compound 2, 2-(2-Quinolinyl)-5-methyl-(1S,4S)-2,5-diazabicyclo-[2.2.1]-heptane], the IC50 is 130 nM.
Turning to `CN1C[C@@H]2C[C@H]1CN2c1ccc2cc(N)ccc2n1` [Compound 5, 2-(6-Amino-2-quinolinyl)-5-methyl-(1S,4S)-2,5-diazabicyclo-[2.2.1]-heptane fumaric acid salt], the IC50 came out at 840 nM.
Same read-out and setting: then `c1ccc2sc(N3C[C@@H]4C[C@H]3CN4)nc2c1` [Compound 7, 2-(2-Benzothiazolyl)-(1S,4S)-2,5-diazabicyclo-[2.2.1]-heptane fumaric acid salt], with 350 nM.
